The record followed here is ChEMBL document CHEMBL5154884, “Discovery of a Novel Src Homology-2 Domain Containing Protein Tyrosine Phosphatase-2 (SHP2) and Cyclin-Dependent Kinase 4 (CDK4) Dual Inhibitor for the Treatment of Triple-Negative Breast Cancer” (J Med Chem, 2022).

Data set [1] relates to MDA-MB-231. Kind of data set: Induction of apoptosis in human MDA-MB-231 cells assessed as early apoptotic cells at 1 uM measured after 48 hrs by Annexin V-FITC/PI staining based flow cytometric analysis (reference value: 0.32%). The format is functional.
The next data set addresses CDK2/Cyclin-E2 (Homo sapiens, UniProt O96020+P24941). The experiment in a line: Inhibition of recombinant N-terminal GST/His6-fusion tagged human CDK2/Cyclin E2 expressed in Sf9 insect cells incubated for 20 mins followed by [33P]gamma-ATP addition and measured after 2 hrs by radiometric HotSpot Kinase assay.
Data set [2] can be described thus: Oral bioavailability in ICR mouse at 10 mg/kg measured upto 24 hrs by LC-MS/MS analysis. The format is ADME, organism-based. The conditions noted are these: in vivo.
Data set [3] has as its system EMT6. The experiment in a line: Antitumor activity against mouse EMT6 cells implanted in BALB/c mouse syngenic model assessed as downregulation of p-retinoblastoma level in tumor at 20 to 40 mg/kg, po qd measured after 18 days by immunohistochemical analysis. The format is functional, organism-based. The conditions noted are these: dose 20-40 mg/kg, time 18.0 day.
Data set [4] has as its target T1, Tyrosine-protein phosphatase non-receptor type 11 (Homo sapiens) (UniProt Q06124).
T1 sequence (whole entry): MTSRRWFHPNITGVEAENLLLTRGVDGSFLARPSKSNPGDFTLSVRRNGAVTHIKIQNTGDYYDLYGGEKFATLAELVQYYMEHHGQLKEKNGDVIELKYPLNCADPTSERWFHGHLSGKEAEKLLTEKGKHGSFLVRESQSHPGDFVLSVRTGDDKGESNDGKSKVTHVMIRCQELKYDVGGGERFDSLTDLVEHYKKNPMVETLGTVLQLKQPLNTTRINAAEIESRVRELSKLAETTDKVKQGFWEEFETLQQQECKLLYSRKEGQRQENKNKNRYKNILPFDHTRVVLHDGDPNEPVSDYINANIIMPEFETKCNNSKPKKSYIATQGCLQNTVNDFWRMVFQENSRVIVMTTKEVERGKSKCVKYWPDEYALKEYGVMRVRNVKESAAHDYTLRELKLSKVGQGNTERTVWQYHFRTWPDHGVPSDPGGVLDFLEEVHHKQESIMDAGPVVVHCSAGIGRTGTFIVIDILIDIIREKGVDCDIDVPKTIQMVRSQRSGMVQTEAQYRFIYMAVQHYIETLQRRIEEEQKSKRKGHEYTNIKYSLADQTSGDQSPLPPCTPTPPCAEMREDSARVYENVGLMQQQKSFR
Kind of data set: Inhibition of SHP2 downstream signalling in human MDA-MB-231 cells assessed as decrease in pERK1/2 protein level measured after 72 hrs by Western blot analysis. The format is cell-based. The conditions noted are these: dose 1.25-20 µM, DDE = dose-dependent effect.

Data set [5] can be described thus: Cmax in ICR mouse at 1 mg/kg, iv measured upto 24 hrs by LC-MS/MS analysis. The format is ADME, organism-based. On the set-up: time < 24 hrs, dose 1 mg/kg, route iv. The conditions noted are these: in vivo.
The target of a further data set is CDK12/Cyclin K (Homo sapiens, UniProt Q9NYV4). The experiment in a line: Inhibition of recombinant N-terminal GST/His6-fusion tagged human CDK12/Cyclin K expressed in Sf9 insect cells incubated for 20 mins followed by [33P]gamma-ATP addition and measured after 2 hrs by radiometric HotSpot Kinase assay.
Sequence of CDK12/Cyclin K (O75909 whole entry, the tested form may be a part): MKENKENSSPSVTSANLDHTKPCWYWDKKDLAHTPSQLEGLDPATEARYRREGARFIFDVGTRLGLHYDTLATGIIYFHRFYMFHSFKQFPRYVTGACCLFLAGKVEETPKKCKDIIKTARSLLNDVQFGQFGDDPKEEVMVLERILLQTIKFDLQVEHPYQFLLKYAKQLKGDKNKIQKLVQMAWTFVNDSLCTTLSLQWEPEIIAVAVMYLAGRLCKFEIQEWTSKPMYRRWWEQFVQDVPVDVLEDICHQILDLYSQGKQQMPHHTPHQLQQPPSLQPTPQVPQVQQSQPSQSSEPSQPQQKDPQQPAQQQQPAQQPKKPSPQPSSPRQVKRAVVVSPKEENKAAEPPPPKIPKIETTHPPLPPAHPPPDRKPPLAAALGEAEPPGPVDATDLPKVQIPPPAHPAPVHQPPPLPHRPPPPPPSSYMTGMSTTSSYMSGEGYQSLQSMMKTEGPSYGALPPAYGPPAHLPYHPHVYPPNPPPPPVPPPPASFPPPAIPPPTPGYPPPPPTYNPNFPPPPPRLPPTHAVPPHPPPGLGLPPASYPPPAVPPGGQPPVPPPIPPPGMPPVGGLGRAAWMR
Sequence of CDK12/Cyclin K (Q9NYV4 whole entry, the tested form may be a part): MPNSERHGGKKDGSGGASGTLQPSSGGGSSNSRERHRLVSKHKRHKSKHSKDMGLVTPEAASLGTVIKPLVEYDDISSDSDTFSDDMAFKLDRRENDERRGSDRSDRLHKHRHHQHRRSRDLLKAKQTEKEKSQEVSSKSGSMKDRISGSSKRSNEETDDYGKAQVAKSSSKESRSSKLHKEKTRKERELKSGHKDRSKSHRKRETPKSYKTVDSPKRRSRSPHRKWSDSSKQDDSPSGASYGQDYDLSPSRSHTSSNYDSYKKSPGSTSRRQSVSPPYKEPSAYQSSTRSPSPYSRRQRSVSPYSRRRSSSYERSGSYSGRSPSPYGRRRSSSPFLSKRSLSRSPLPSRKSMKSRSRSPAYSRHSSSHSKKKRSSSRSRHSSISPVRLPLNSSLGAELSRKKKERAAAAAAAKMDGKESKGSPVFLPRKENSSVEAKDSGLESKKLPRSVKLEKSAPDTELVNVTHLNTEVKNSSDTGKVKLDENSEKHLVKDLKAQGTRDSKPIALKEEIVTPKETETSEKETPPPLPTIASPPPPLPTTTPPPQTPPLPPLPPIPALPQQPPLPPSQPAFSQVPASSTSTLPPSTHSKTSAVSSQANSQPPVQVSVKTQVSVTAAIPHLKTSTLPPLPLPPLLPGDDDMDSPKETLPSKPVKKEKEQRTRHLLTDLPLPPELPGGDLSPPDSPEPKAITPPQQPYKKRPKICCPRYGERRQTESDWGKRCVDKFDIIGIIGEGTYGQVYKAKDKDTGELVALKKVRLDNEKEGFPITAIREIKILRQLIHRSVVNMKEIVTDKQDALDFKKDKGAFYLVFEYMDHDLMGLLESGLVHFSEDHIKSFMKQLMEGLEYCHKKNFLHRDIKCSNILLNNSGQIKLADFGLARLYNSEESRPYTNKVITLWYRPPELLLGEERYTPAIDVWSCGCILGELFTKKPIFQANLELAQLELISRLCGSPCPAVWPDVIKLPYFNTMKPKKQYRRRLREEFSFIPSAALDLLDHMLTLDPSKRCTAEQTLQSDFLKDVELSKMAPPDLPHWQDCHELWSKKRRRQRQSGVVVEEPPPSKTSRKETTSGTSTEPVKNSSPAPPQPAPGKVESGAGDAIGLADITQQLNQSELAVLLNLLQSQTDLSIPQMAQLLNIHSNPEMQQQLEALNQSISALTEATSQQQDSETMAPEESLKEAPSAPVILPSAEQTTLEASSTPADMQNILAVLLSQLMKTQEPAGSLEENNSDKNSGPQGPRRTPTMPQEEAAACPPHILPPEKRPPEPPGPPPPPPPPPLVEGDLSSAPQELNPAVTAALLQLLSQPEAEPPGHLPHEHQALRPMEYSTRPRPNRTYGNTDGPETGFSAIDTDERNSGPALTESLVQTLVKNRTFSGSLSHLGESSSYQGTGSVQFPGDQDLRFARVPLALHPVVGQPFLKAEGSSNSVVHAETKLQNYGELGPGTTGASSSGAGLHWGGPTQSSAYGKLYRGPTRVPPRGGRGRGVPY
Data set [6] can be described thus: Volume of distribution in ICR mouse at 1 mg/kg, iv measured upto 24 hrs by LC-MS/MS analysis. The format is ADME, organism-based. The settings on record: in vivo.
The subject of data set [7] is MDA-MB-231. Kind of data set: Induction of cell cycle arrest in human MDA-MB-231 cells assessed as accumulation of cells in S phase at 3 uM incubated for 48 hrs by RNase/propidium iodide staining based flow cytometry analysis (reference value: […]). The format is functional.
For data set [8], the system named is MDA-MB-231. The experiment in a line: Induction of apoptosis in human MDA-MB-231 cells assessed as viable cells at 1 uM measured after 48 hrs by Annexin V-FITC/PI staining based flow cytometric analysis (reference value: 98.04%). The settings on record: read-out: Activity. The format is functional. On the technique in general: In flow cytometry, cells or beads pass a laser one at a time.

A short description of data set [9]: Inhibition of recombinant full length N-terminal GST/His6-fusion tagged human CDK9/Cyclin T1 expressed in Sf9 insect cells incubated for 20 mins followed by [33P]gamma-ATP addition and measured after 2 hrs by radiometric HotSpot Kinase assay.
Data set [10] concerns EMT6. Kind of data set: Antitumor activity against mouse EMT6 cells implanted in BALB/c mouse syngenic model assessed as downregulation of Ki67 level in tumor at 20 to 40 mg/kg, po qd measured after 18 days by immunohistochemical analysis. The format is functional, organism-based. The conditions noted are these: dose 20-40 mg/kg, time 18.0 day.
Data set [11] has as its system MDA-MB-231. Kind of data set: Induction of cell cycle arrest in human MDA-MB-231 cells assessed as accumulation of cells in G0/G1 phase at 3 uM incubated for 48 hrs by RNase/propidium iodide staining based flow cytometry analysis (reference value: 26.2%). The format is functional.
For data set [12], the target named is Tyrosine-protein phosphatase non-receptor type 6 (Homo sapiens, UniProt P29350). Kind of data set: Inhibition of SHP1 (unknown origin) using DiFMUP as substrate preincubated for 20 mins followed by substrate addition and measured for 2 hrs by fluorescence based analysis.
Sequence of Tyrosine-protein phosphatase non-receptor type 6 (P29350 whole entry): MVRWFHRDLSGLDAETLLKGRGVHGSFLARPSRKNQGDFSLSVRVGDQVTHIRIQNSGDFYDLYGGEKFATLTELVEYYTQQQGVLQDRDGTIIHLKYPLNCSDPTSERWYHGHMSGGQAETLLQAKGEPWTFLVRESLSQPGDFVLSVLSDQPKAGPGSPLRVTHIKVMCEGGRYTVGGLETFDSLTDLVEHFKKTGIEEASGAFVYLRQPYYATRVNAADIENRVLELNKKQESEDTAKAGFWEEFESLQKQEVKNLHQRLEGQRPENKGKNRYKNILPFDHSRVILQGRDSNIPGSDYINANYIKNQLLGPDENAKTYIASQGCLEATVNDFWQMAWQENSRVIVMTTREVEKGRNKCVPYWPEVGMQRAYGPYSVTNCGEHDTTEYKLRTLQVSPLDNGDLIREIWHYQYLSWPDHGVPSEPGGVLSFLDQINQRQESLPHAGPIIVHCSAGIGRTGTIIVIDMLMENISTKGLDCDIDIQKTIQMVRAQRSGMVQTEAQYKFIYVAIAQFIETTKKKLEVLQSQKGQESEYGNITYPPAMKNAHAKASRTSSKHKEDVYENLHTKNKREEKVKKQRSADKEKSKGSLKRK
Data set [13] has as its system EMT6. Kind of data set: Antitumor activity against mouse EMT6 cells implanted in BALB/c mouse syngenic model assessed as tumor growth inhibition at 20 mg/kg, po bid and measured after 18 days relative to control. The format is functional. The settings on record: EMT6, 432 h, time 18 day, read-out: TGI.
The next data set concerns the target CDK3/Cyclin E (Homo sapiens, UniProt Q00526). The experiment in a line: Inhibition of recombinant N-terminal GST/His6-fusion tagged human CDK3/Cyclin E expressed in Sf9 insect cells incubated for 20 mins followed by [33P]gamma-ATP addition and measured after 2 hrs by radiometric HotSpot Kinase assay.
Data set [14] concerns MDA-MB-231. Kind of data set: Induction of apoptosis in human MDA-MB-231 cells assessed as late apoptotic cells at 1 uM measured after 48 hrs by Annexin V-FITC/PI staining based flow cytometric analysis (reference value: 1.06%). The format is functional.
For data set [15], the system named is MDA-MB-231. Kind of data set: Induction of apoptosis in human MDA-MB-231 cells assessed as early apoptotic cells at 3 uM measured after 48 hrs by Annexin V-FITC/PI staining based flow cytometric analysis (reference value: 0.32%). The format is functional.
The target in data set [16] is T2, Tyrosine-protein phosphatase non-receptor type 11 (Homo sapiens, UniProt Q06124).
T2 sequence (Q06124 whole entry): T1 sequence (whole entry)
The experiment in a line: Inhibition of SHP2 PTP domain (unknown origin) using DiFMUP as substrate preincubated for 20 mins followed by substrate addition and measured for 2 hrs by fluorescence based analysis.

The target in data set [17] is Cyclin-dependent kinase 13/Cyclin-K (Homo sapiens, UniProt Q14004). The experiment in a line: Inhibition of recombinant N-terminal GST/His6-fusion tagged human CDK13/Cyclin K expressed in Sf9 insect cells incubated for 20 mins followed by [33P]gamma-ATP addition and measured after 2 hrs by radiometric HotSpot Kinase assay.
Data set [18] deals with MDA-MB-231. The experiment in a line: Upregulation of p-STAT3 protein expression in human MDA-MB-231 cells at 0.25 to 20 uM measured after 72 hrs by Western blot analysis. The format is functional, cell-based. The settings on record: dose 0.25-20 µM. A general note: In western blotting, separated proteins are transferred to a membrane and probed.
The subject of a further data set is MDA-MB-468. The experiment in a line: Antiproliferative activity against human MDA-MB-468 cells assessed as inhibition of cell growth incubated for 48 hrs by MTT assay. The format is functional, cell-based. The settings on record: Homo sapiens, MDA-MB-468, 48 h.
Another data set deals with CDK6/cyclin D3 (Homo sapiens, UniProt Q00534). Kind of data set: Inhibition of recombinant N-terminal GST/His6-fusion tagged human CDK6/Cyclin D3 expressed in Sf9 insect cells incubated for 20 mins followed by [33P]gamma-ATP addition and measured after 2 hrs by radiometric HotSpot Kinase assay.
Sequence of CDK6/cyclin D3 (P30281 whole entry, the tested form may be a part): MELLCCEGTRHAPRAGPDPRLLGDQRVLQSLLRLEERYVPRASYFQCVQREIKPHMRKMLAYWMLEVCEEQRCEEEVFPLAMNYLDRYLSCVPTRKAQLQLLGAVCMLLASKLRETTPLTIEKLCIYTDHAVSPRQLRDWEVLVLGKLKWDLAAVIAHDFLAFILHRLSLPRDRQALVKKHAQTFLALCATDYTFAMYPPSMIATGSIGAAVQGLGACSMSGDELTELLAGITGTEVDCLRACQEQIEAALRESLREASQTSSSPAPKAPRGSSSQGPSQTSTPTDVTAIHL
Sequence of CDK6/cyclin D3 (Q00534 whole entry, the tested form may be a part): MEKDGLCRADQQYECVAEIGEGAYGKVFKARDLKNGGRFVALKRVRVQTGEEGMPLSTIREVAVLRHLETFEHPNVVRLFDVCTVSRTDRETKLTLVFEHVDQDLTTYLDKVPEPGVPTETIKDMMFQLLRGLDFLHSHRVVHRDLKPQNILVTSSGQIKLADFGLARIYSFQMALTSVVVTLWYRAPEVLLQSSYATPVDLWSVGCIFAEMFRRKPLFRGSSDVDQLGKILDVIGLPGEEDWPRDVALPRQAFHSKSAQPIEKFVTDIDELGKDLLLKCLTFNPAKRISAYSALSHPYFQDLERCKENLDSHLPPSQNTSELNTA

Calls of active or inactive are those of the source. The calls are words filed in the database; no cut-off is given here. Bounds are passed on as bounds.

Sequence of CDK3/Cyclin E (P24864 whole entry, the tested form may be a part): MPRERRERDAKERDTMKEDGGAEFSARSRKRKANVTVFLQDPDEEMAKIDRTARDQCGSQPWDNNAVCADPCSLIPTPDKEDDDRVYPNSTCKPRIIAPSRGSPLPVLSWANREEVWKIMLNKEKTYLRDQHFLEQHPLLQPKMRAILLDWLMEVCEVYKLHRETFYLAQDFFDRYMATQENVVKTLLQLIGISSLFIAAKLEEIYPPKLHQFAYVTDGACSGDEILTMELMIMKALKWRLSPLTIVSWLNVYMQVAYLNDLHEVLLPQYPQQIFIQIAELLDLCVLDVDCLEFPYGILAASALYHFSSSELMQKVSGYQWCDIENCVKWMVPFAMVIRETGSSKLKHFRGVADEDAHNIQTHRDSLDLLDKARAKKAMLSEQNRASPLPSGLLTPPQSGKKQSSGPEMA
Sequence of CDK3/Cyclin E (Q00526 whole entry, the tested form may be a part): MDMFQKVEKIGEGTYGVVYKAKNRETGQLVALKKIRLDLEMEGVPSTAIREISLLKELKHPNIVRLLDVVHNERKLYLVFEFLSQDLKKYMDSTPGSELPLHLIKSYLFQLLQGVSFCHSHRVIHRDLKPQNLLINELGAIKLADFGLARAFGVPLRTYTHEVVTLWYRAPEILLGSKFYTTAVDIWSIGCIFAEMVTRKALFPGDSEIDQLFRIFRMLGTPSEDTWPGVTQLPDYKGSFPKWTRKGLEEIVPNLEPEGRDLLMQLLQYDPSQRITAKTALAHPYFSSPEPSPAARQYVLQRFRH

Take `Cc1nc2c(F)cc(-c3nc(Nc4nccc(Sc5cnc(N6CCC7(CC6)CO[C@@H](C)[C@H]7N)cn5)c4Cl)ncc3F)cc2n1C(C)C`: the Activity amounted to 7.29% with MDA-MB-231 [1]; 39.6% in the data set with MDA-MB-231 [7]; 58.9% in the data set with MDA-MB-231 [11]; 5.24% with MDA-MB-231 [14]; 9.46% in the data set on MDA-MB-231 [15]. The IC50 (as a rule, the point on the concentration scale where inhibition reaches its midpoint) was 464 nM on CDK2/Cyclin-E2; 697 nM on CDK12/Cyclin K; 26.4 nM in data set [9]; over 20000 nM in data set [12]; over 1000 nM at CDK3/Cyclin E; over 20000 nM in data set [16]. Besides, the IC50 is over 1000 nM in data set [17], 1760 nM in the data set with MDA-MB-468 and 634 nM on CDK6/cyclin D3. Moreover, the bioavailability (in general, the share of a dose that reaches the circulation, judged against a reference dose that is usually intravenous) in data set [2] was 45.8%. The outcome with EMT6 [3], with EMT6 [10] and with MDA-MB-231 [18] was Active. Further, the inhibition result in data set [4] was “Dde”. The Cmax (usually the peak of the concentration-time curve) in data set [5] worked out at 383 ng/mL. Further, the Vd (as a rule, the apparent volume that relates the amount in the body to the concentration in plasma or blood) in data set [6] was 2.53 L/kg. Moreover, the viability at 1 µM in the data set with MDA-MB-231 [8] stood at 86.3%. In the data set with EMT6 [13], the inhibition in vivo at 20 mg/kg was found to be 89%.
